Each structure is given as a SMILES string.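 Following 48 hours of exposure in 96-well plates, responses at five concentrations were used to interpolate endpoints linearly. At the GI50, growth is halved.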 The source made the active and inactive calls. Rule as the data show it: active = GI50 up to about 1.1 µM and inactive = higher. A value given as a limit tells only on which side of the number the result lay.

This is an account of results in ChEMBL document CHEMBL1201862, “PubChem BioAssay data set” (2004).

Some test systems named below: COLO 205; RPMI-8226; NCI/ADR-RES; OVCAR-8; IGROV-1; SF-539; NCI-H522; CCRF-CEM; SN12C; HCT-15; LOX IMVI; OVCAR-5; CAKI-1; SK-MEL-5; SNB-19; UACC-62; TK-10; T47D; MDA-MB-435; 786-0.
Common to all, as to assay: DTP human tumour cell line panel, 48 h

As for `CCN(CC)CCNC(=O)C1COc2ccc(-c3cc(=O)c4ccccc4o3)cc2O1` (stereo unspecified), the GI50 (commonly the concentration at which growth is held to half of that of the control) with COLO 205 is 17.9 µM (inactive); in the test on RPMI-8226 it was 22.5 µM (inactive); in the test on NCI/ADR-RES, 19.2 µM (inactive); in the test with OVCAR-8 it was 16.7 µM (inactive); with IGROV-1, 28.9 µM (inactive); in the test on SF-539, 15.8 µM (inactive). The GI50 was 18.2 µM (inactive) in the test on NCI-H522; 19.1 µM (inactive) in the test with CCRF-CEM; 19.1 µM (inactive) with SN12C; 15.5 µM in the test on HCT-15; 17.2 µM (inactive) with LOX IMVI; 22.3 µM (inactive) in the test with OVCAR-5. Moreover, the GI50 was 20.5 µM (inactive) with CAKI-1, 20.9 µM (inactive) with SK-MEL-5, 20.2 µM (inactive) in the test on SNB-19 and 17.6 µM (inactive) with UACC-62.

With `Cc1c(OCc2cccc3ccccc23)ccc2c(=O)cc(SCCN3CCOCC3)oc12`, the GI50 in the test with TK-10, with COLO 205, with NCI/ADR-RES, in the test on OVCAR-8, in the test on T47D and in the test on IGROV-1 was > 100 µM (inactive) each time. The GI50 is > 100 µM (inactive) in the test on SF-539; > 100 µM (inactive) in the test with MDA-MB-435; 90.6 µM (inactive) with NCI-H522; > 100 µM (inactive) with CCRF-CEM; > 100 µM (inactive) in the test with SN12C; over 100 µM with HCT-15. For the same molecule, the GI50 in the test on LOX IMVI is > 100 µM (inactive); in the test with OVCAR-5, 78.2 µM (inactive); in the test with CAKI-1, > 100 µM (inactive); in the test with SK-MEL-5 it was > 100 µM (inactive); in the test with 786-0 it was > 100 µM (inactive); in the test on SNB-19, > 100 µM (inactive). The GI50 in the test with UACC-62 was > 100 µM (inactive).

On to `Cc1cc(C)c(C2CC(O)C(CO)O2)cc1C` (stereo unspecified), for which the GI50 in the test on TK-10 is > 100 µM (inactive); in the test on COLO 205, > 10 µM (inactive); in the test with RPMI-8226 it was > 100 µM (inactive); with NCI/ADR-RES, 67.5 µM (inactive); in the test on OVCAR-8, > 100 µM (inactive); with IGROV-1, > 100 µM (inactive). Also, the GI50 in the test on SF-539 is > 100 µM (inactive); in the test on MDA-MB-435, > 100 µM (inactive); in the test on NCI-H522, > 100 µM (inactive); in the test on CCRF-CEM, > 100 µM (inactive); in the test with SN12C, > 100 µM (inactive); in the test on HCT-15, over 100 µM. Also, the GI50 in the test on LOX IMVI, with OVCAR-5, in the test with CAKI-1, in the test with SK-MEL-5, in the test with 786-0 and in the test with SNB-19 was > 100 µM (inactive) each time. In the test on UACC-62, the GI50 is > 100 µM (inactive).

In the case of `O=c1[nH]c(=O)n(COCc2ccccc2)c2ccccc12`, the GI50 was 51.5 µM (inactive) in the test on TK-10; 72.3 µM (inactive) in the test with COLO 205; 20.5 µM (inactive) in the test with NCI/ADR-RES; 40.9 µM (inactive) in the test with OVCAR-8; 18.4 µM (inactive) with IGROV-1; 47.9 µM (inactive) in the test on SF-539. In addition, the GI50 was > 100 µM (inactive) in the test with MDA-MB-435; 56.9 µM (inactive) with CCRF-CEM; > 100 µM (inactive) in the test with SN12C; 14 µM with HCT-15; 95.3 µM (inactive) in the test with LOX IMVI; > 100 µM (inactive) in the test on OVCAR-5. Moreover, the GI50 in the test with CAKI-1 was 62.7 µM (inactive); in the test on SK-MEL-5, 27.7 µM (inactive); in the test on 786-0 it was > 100 µM (inactive); in the test on SNB-19, 23 µM (inactive); with UACC-62, 75 µM (inactive).

In the case of `Nn1c(CNc2ccc(-c3nnc(Nc4ccc(Cl)cc4)n3N)cc2)nnc1Nc1ccc(Cl)cc1`, the GI50 with TK-10 is > 100 µM (inactive); with COLO 205, > 100 µM (inactive); in the test with RPMI-8226, 61.9 µM (inactive); in the test with NCI/ADR-RES, > 100 µM (inactive); in the test on IGROV-1 it was > 100 µM (inactive); in the test on MDA-MB-435 it was > 100 µM (inactive). The GI50 is 75.5 µM (inactive) with NCI-H522; > 100 µM (inactive) in the test with SN12C; over 100 µM in the test on HCT-15; > 100 µM (inactive) in the test with OVCAR-5; > 100 µM (inactive) in the test with CAKI-1; > 100 µM (inactive) in the test with SK-MEL-5. Further, the GI50 with 786-0 is > 100 µM (inactive); in the test on SNB-19 it was > 100 µM (inactive); with UACC-62, 50.9 µM (inactive).

On to `COC(=O)C12CCCN1CCC2`, for which the GI50 in the test on TK-10, with COLO 205, in the test on NCI/ADR-RES, in the test on T47D, with MDA-MB-435 and with NCI-H522 was > 100 µM (inactive) throughout. The GI50 with CCRF-CEM was > 100 µM (inactive); with SN12C it was > 100 µM (inactive); in the test with HCT-15 it was over 100 µM; in the test on LOX IMVI it was > 100 µM (inactive); in the test with OVCAR-5 it was > 100 µM (inactive); in the test with CAKI-1, > 100 µM (inactive). Besides, the GI50 with SK-MEL-5, in the test with 786-0, in the test with SNB-19 and with UACC-62 was > 100 µM (inactive) each time.

On to `O=S(=O)(O)c1cc(/N=[N+](\[O-])c2ccc(/N=N/c3ccccc3)cc2S(=O)(=O)O)ccc1/C=C/c1ccc(/N=[N+](\[O-])c2ccc(/N=N/c3ccccc3)cc2S(=O)(=O)O)cc1S(=O)(=O)O`, for which the GI50 is > 100 µM (inactive) in the test with COLO 205; > 100 µM (inactive) in the test on RPMI-8226; > 100 µM (inactive) in the test with NCI/ADR-RES; > 100 µM (inactive) in the test with OVCAR-8; > 100 µM (inactive) in the test on IGROV-1; > 31.6 µM (inactive) in the test with SF-539. Besides, the GI50 with NCI-H522 was > 100 µM (inactive); in the test with CCRF-CEM it was > 95.3 µM (inactive); in the test on SN12C, > 100 µM (inactive); in the test with HCT-15, over 100 µM; in the test with LOX IMVI, > 100 µM (inactive); with OVCAR-5 it was > 100 µM (inactive). Further, the GI50 with SK-MEL-5, in the test with SNB-19 and in the test with UACC-62 was > 100 µM (inactive) in each case.

For `CC(=O)OC[C@H]1O[C@@H](O[C@H]2[C@H](OC(C)=O)C=CO[C@@H]2COC(C)=O)C(OC(C)=O)[C@H]2OC(C)(C)O[C@H]21` (stereo partly specified), the GI50 with TK-10 is > 100 µM (inactive); with COLO 205 it was > 100 µM (inactive); in the test with NCI/ADR-RES, > 100 µM (inactive); with OVCAR-8 it was > 100 µM (inactive); in the test on T47D, 64.4 µM (inactive); in the test with IGROV-1 it was > 100 µM (inactive). In addition, the GI50 in the test on SF-539 was > 100 µM (inactive); with MDA-MB-435, 48.1 µM (inactive); with NCI-H522 it was 17.1 µM (inactive); in the test on CCRF-CEM, 62.8 µM (inactive); in the test with SN12C, > 100 µM (inactive); with HCT-15, over 100 µM. Also, the GI50 in the test with LOX IMVI is > 100 µM (inactive); with OVCAR-5 it was > 100 µM (inactive); with CAKI-1, > 100 µM (inactive); in the test on SK-MEL-5, 58.9 µM (inactive); with 786-0, > 100 µM (inactive); in the test on SNB-19, > 100 µM (inactive). Further, the GI50 in the test with UACC-62 was > 100 µM (inactive).
